Target: T1, Human Polθ polymerase domain (aa1820-2590) (Homo sapiens, UniProt O75417)
T1 construct: Human Polθ polymerase domain (aa1820-2590) was expressed in E. coli; made in house; host or cells: E. coli
T1 sequence (O75417 1820-2590): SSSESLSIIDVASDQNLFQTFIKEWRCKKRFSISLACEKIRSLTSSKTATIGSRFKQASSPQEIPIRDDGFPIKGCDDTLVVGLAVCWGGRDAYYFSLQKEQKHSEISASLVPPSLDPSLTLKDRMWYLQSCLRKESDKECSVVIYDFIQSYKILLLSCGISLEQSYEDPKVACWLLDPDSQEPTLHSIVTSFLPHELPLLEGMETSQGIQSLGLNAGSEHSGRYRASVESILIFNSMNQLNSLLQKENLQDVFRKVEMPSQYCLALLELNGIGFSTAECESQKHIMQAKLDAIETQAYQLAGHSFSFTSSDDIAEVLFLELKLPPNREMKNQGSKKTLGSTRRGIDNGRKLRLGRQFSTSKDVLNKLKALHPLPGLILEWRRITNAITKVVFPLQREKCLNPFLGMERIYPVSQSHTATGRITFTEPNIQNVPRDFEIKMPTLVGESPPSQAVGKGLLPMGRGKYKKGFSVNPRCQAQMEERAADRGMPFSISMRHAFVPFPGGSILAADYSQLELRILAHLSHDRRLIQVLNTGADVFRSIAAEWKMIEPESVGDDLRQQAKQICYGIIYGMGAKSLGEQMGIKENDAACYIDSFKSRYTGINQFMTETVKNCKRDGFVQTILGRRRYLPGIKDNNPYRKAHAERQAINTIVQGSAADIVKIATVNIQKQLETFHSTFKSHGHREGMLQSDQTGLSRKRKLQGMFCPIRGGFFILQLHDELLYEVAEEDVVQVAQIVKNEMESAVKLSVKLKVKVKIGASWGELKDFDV
Assay: Polθ Polymerase Domain Kinact/KI Assay (PicoGreen)
Format: biochemical
Details: 0.8 nM Polθ, 100 nM DNA substrate, kobs vs [I] fit for 2-step covalent inhibitor
Description: Polθ Polymerase Domain Kinact/KI Assay
A PicoGreen assay was used to measure the Kinact and KI values of covalent compounds that inhibit the activity of Polθ in vitro.
Human Polθ polymerase domain (aa1820-2590) was expressed in E. coli, purified, aliquoted and stored at −80° C. until required. Polθ substrate was generated from a 1.2:1 mix of DNA II Short to DNA II Long to give a final concentration of […] substrate in annealing buffer (20 mM Tris pH 7.5, 50 mM NaCl). The substrate was heated in […] aliquots to 95° C. in a heating block for 5 min before the heating block switched off, the reaction left to cool to rt and stored at −20° C. until required.
Assay measurements were performed with 1× buffer comprising 25 mM Tris pH 7.5, 12.5 mM NaCl, […], 5% (v/v) glycerol, 0.01% v/v Triton x-100, 0.1 mg/ml BSA, 1 mM DTT. Test compounds were prepared by dilution in 100% DMSO to give a 12 μM intermediate stock of each (100× final top concentration). 100 nL of 23×1:1.5-fold serial dilutions and a DMSO only control were dispensed using the Tecan dispenser into Greiner 384 well black low volume plates (product code 784076). DMSO concentration was maintained at 1% of the final assay volume by back filling with DMSO.
2× Working stock of substrate (200 nM of DNA substrate and […] dNTPs) and enzyme ([…] PolΘ) were made up in assay buffer. 5 μL/well of both enzyme and substrate 2× solutions were dispensed using a Tempest dispenser (Formulatrix) into assay plates that had been pre-dispensed with compound to give a final assay concentration of 100 nM DNA substrate, […] dNTPs and 0.8 nM Polθ. To stop the reaction, […] of a solution containing 25 mM Tris-HCl pH 7.5 and 20 mM EDTA was added at […] (t=0, 2.5, 5, 7.5, 10, 12.5, 15, 20, 25, 30, 35, 40, 45, 50, 55 and 60 min) using the Tempest's time delay function. The plates were covered during the time course to prevent evaporation. After completing the assay, 5 μL of detection reagent (25 mM Tris-HCl pH 7.5 and 2.5% (v/v) PicoGreen) was dispensed into the wells using a Tempest liquid handler (Formulatrix) and plates subsequently read on the CLARIOstar Plus (BMG Labtech) using the default optical settings for fluorescein and the auto gain/focus settings.
All data analysis was carried out using GraphPad Prism V.8 (GraphPad Software Inc, San Diego, CA) Time course data for each inhibitor concentration was fitted to equation 1 to determine kobs values.^1 Any time points where the control (DMSO alone) reaction was no longer linear were excluded from the analysis. 1) Evaluation of Enzyme Inhibitors in Drug Discovery (Ch9), R. A Copeland, Wiley, 2nd Edition 2013.
A secondary plot of kobs vs [I] is used to determine the Kinact and KI parameters (for a 2-step covalent inhibitor) by fitting to equation 2.^1

Row | SMILES | Kinact/Kl [M⁻¹ s⁻¹]
1 | C=CC(=O)N1CC2(CN(CCN3C[C@H]4CC(=O)N(c5cc(C(F)(F)F)cc(C)n5)[C@@H]4C(=O)N(C)c4cccc(C)c43)C[C@@]2(C)C#N)C1 (racemic) [Example 119b, (S/R)-2-acryloyl-6-(2-((3aR,11aS)-6,10-dimethyl-1-(6-methyl-4-(trifluoromethyl)pyridin-2-yl)-2,11-dioxo-1,2,3,3a,4,10,11,11a-octahydro-5H-benzo[b]pyrrolo[2,3-f][1,4]diazocin-5-yl)ethyl)-8-methyl-2,6-diazaspiro[3.4]octane-8-carbonitrile] | 3.87e+06
2 | C=CC(=O)N1CCC(N2CCC(CN3C[C@H]4CC(=O)N(c5cc(C(F)(F)F)cc(C)n5)[C@@H]4C(=O)N(C)c4cccc(Cl)c43)CC2)C1 (stereo partly drawn) [Example 222, (3aR,11aS)-5-((1-(1-acryloylpyrrolidin-3-yl)piperidin-4-yl)methyl)-6-chloro-10-methyl-1-(6-methyl-4-(trifluoromethyl)pyridin-2-yl)-1,3a,4,5,10,11a-hexahydro-2H-benzo[b]pyrrolo [2,3-f][1,4] diazocine-2,11(3H)-dione] | 2.04e+06
3 | C=CC(=O)N1CC(N2CCN(C(C)CN3C[C@H]4CC(=O)N(c5cc(C(F)(F)F)cc(C)n5)[C@@H]4C(=O)N(C)c4cccc(F)c43)CC2)C1 (stereo partly drawn) [Example 97, (3aR,11aS)-5-(2-(4-(1-acryloylazetidin-3-yl)piperazin-1-yl)propyl)-6-fluoro-10-methyl-1-(6-methyl-4-(trifluoromethyl)pyridin-2-yl)-1,3a,4,5,10,11a-hexahydro-2H-benzo[b]pyrrolo[2,3-f][1,4]diazocine-2,11(3H)-dione] | 1.18e+06
4 | C=CC(=O)N1CCN(CCCN2C[C@H]3CC(=O)N(c4cc(C(F)(F)F)cc(C)n4)[C@@H]3C(=O)N(C)c3cccc(Cl)c32)CC1CC#N (mixture of isomers) [Example 267a, 2-((S/R)-1-acryloyl-4-(3-((3aR,11aS)-6-chloro-10-methyl-1-(6-methyl-4-(trifluoromethyl)pyridin-2-yl)-2,11-dioxo-1,2,3,3a,4,10,11,11a-octahydro-5H-benzo[b]pyrrolo[2,3-f][1,4]diazocin-5-yl)propyl)piperazin-2-yl)acetonitrile] | 1.24e+06
5 | C=CC(=O)N1CC2(CN(CCN3C[C@H]4CC(=O)N(c5cc(C(F)(F)F)cc(C)n5)[C@@H]4C(=O)N(C)c4cccc(F)c43)CC(=O)N2)C1 [Example 104, (3aR,11aS)-5-(2-(2-acryloyl-6-oxo-2,5,8-triazaspiro[3.5]nonan-8-yl)ethyl)-6-fluoro-10-methyl-1-(6-methyl-4-(trifluoromethyl)pyridin-2-yl)-1,3a,4,5,10,11a-hexahydro-2H-benzo[b]pyrrolo[2,3-f][1,4]diazocine-2,11(3H)-dione] | 1.86e+06
6 | C=CC(=O)N1CC(N2CCC[C@H](CN3C[C@H]4CC(=O)N(c5cc(C(F)(F)F)cc(C)n5)[C@@H]4C(=O)N(C)c4cccc(F)c43)C2)C1 (racemic) [Example 225b, (3aR,11aS)-5-(((S/R)-1-(1-acryloylazetidin-3-yl)piperidin-3-yl)methyl)-6-fluoro-10-methyl-1-(6-methyl-4-(trifluoromethyl)pyridin-2-yl)-1,3a,4,5,10,11a-hexahydro-2H-benzo[b] pyrrolo[2,3-f] [1,4]diazocine-2,11(3H)-dione] | 1.31e+06
7 | C=CC(=O)N1CCN(c2nc(CN3C[C@H]4CC(=O)N(c5cc(C(F)(F)F)cc(C)n5)[C@@H]4C(=O)N(C)c4cccc(F)c43)c[nH]2)CC1 [Example 125, (3aR,11aS)-5-((2-(4-acryloylpiperazin-1-yl)-1H-imidazol-4-yl)methyl)-6-fluoro-10-methyl-1-(6-methyl-4-(trifluoromethyl)pyridin-2-yl)-1,3a,4,5,10,11a-hexahydro-2H-benzo[b]pyrrolo[2,3-f][1,4]diazocine-2,11(3H)-dione] | 2.53e+06
8 | C=CC(=O)N1CCn2cc(CN3C[C@H]4CC(=O)N(c5cc(C(F)(F)F)cc(C)n5)[C@@H]4C(=O)N(C)c4cccc(Cl)c43)nc2C1 [Example 136, (3aR,11aS)-5-((7-acryloyl-5,6,7,8-tetrahydroimidazo[1,2-a]pyrazin-2-yl)methyl)-6-chloro-10-methyl-1-(6-methyl-4-(trifluoromethyl)pyridin-2-yl)-1,3a,4,5,10,11a-hexahydro-2H-benzo[b]pyrrolo[2,1-f][1,4]diazocine-2,11(3H)-dione] | 6.47e+06
9 | C#CC(=O)N1CC(F)(COCCN2C[C@H]3CC(=O)N(c4cc(C(F)(F)F)cc(C)n4)[C@@H]3C(=O)N(C)c3cccc(Cl)c32)C1 [Example 303, (3aR,11aS)-6-chloro-5-(2-((3-fluoro-1-propioloylazetidin-3-yl)methoxy)ethyl)-10-methyl-1-(6-methyl-4-(trifluoromethyl)pyridin-2-yl)-1,3a,4,5,10,11a-hexahydro-2H-benzo[b]pyrrolo[2,3-f][1,4]diazocine-2,11(3H)-dione] | 1.8e+06
10 | C=CC(=O)N1Cc2nc(CN3C[C@H]4CC(=O)N(c5cc(C(F)(F)F)cc(C)n5)[C@@H]4C(=O)N(C)c4cccc(Cl)c43)cn2CC1C(F)F (mixture of isomers) [Example 243b, (3aR,11aS)-5-(((R/S)-7-acryloyl-6-(difluoromethyl)-5,6,7,8-tetrahydroimidazo[1,2-a]pyrazin-2-yl)methyl)-6-chloro-10-methyl-1-(6-methyl-4-(trifluoromethyl)pyridin-2-yl)-1,3a,4,5,10,11a-hexahydro-2H-benzo[b]pyrrolo[2,3-f][1,4]diazocine-2,11(3H)-dione] | 580000
11 | C=CC(=O)N1C[C@@H](n2cnc(CN3C[C@H]4CC(=O)N(c5cc(C(F)(F)F)cc(C)n5)[C@@H]4C(=O)N(C)c4cccc(C)c43)c2)[C@@H](F)C1 (single isomer, unassigned) [Example 326b] | 1.52e+06
12 | C=CC(=O)Nc1ccc(CN2C[C@H]3CC(=O)N(c4cc(C(F)(F)F)cc(C)n4)[C@@H]3C(=O)N(C)c3cccc(Cl)c32)nc1 [Example 283, N-(6-(((3aR,11aS)-6-chloro-10-methyl-1-(6-methyl-4-(trifluoromethyl)pyridin-2-yl)-2,11-dioxo-1,2,3,3a,4,10,11,11a-octahydro-5H-benzo[b]pyrrolo[2,3-f][1,4]diazocin-5-yl)methyl)pyridin-3-yl)acrylamide] | 950000
13 | C=CC(=O)N1CCC(N2CCC(CN3C[C@H]4CC(=O)N(c5cc(C(F)(F)F)cc(C)n5)[C@@H]4C(=O)N(C)c4cccc(C)c43)CC2)C1 (mixture of isomers) [Example 95a, (3aR,11aS)-5-((1-((S/R)-1-acryloylpyrrolidin-3-yl)piperidin-4-yl)methyl)-6,10-dimethyl-1-(6-methyl-4-(trifluoromethyl)pyridin-2-yl)-1,3a,4,5,10,11a-hexahydro-2H-benzo[b]pyrrolo[2,3-f][1,4]diazocine-2,11(3H)-dione] | 2.63e+06

From patent publication US20250230165A1, “HETEROCYCLIC COMPOUNDS FOR USE IN THE TREATMENT OF CANCER” (ARTIOS PHARMA LIMITED, priority 2021, published 2025)
